According to patent US8586579B2, “Anellated pyridine compounds” (Hoffmann-La Roche Inc., priority 2010, dated 2013):

Assays:
[1] = target: human 5-HT2A receptor (Homo sapiens (Human), UniProt P28223); assay: Radioligand binding assay, [3H]-ketanserin, human 5-HT2A receptor
Outline: (§1)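 Membranes from transiently transfected HEK293 EBNA cells were incubated 1 h at RT with ten compound concentrations (10 μM-0.1 nM) and radioligand: 0.5 nM [3H]-spiperone for D3 (Tris/NaCl/Mg/Ca buffer, pH 7.4) or 1.1 nM [3H]-ketanserin for 5-HT2A (Tris/MgCl2/EGTA, pH 7.4).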

[2] = target: human D3 receptor (Homo sapiens (Human), UniProt P35462); assay: Radioligand binding assay, [3H]-spiperone, human D3 receptor; details: membranes of HEK293 EBNA cells expressing human D3; 0.5 nM [3H]-spiperone
Outline: as §1

[3] = target: human D2 receptor (Homo sapiens (Human), UniProt P14416); assay: Radioligand binding assay, [3H]-spiperone, human D2 receptor; details: membranes of HEK293 EBNA cells expressing human D2; 0.7 nM [3H]-spiperone
Outline: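 Membranes from HEK293 EBNA cells transiently expressing human D2 were incubated 1 h at RT with ~0.7 nM [3H]-spiperone and ten compound concentrations (10 μM–0.1 nM) in Tris buffer with NaCl, MgCl2, KCl, CaCl2, EDTA, pH 7.4.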

Sequence of human D3 receptor (P35462 whole entry): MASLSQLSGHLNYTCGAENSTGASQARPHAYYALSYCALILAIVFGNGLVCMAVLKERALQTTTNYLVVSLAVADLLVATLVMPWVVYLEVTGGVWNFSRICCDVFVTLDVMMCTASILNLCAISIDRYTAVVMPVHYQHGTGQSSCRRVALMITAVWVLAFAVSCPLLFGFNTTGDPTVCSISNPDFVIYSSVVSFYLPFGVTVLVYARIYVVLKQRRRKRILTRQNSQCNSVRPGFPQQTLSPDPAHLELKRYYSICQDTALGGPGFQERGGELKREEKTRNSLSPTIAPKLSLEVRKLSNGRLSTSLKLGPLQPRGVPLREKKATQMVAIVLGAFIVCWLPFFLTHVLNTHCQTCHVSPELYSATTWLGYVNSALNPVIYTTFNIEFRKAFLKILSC
Sequence of human 5-HT2A receptor (P28223 whole entry): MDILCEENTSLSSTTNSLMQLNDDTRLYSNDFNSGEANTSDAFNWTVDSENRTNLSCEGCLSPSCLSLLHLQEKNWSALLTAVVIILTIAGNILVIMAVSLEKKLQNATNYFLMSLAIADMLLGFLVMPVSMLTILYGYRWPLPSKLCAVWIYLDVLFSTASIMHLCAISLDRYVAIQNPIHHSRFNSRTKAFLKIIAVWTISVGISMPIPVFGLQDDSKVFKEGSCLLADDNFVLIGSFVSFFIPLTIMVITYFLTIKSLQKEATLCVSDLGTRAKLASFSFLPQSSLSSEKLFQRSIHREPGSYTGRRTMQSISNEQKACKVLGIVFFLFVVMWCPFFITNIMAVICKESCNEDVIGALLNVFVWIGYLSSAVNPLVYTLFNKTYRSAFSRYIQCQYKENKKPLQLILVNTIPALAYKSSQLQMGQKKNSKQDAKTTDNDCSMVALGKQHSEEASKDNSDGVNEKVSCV
Sequence of human D2 receptor (P14416 whole entry): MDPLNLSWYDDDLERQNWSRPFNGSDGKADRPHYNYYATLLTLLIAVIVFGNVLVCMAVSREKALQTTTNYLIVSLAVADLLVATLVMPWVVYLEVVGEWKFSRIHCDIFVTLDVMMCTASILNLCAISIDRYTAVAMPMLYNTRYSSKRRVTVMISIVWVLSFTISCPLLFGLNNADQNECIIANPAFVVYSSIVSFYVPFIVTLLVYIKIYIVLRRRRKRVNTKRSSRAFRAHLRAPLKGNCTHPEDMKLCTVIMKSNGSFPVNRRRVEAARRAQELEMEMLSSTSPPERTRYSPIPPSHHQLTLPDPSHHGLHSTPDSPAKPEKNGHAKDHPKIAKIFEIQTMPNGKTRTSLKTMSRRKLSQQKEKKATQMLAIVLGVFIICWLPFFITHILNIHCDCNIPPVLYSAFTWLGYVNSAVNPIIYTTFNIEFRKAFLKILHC

`O=C(CC1(O)CCC1)N[C@H]1CC[C@H](CCN2CCN(c3nccc4c3CCO4)CC2)CC1` [Example 141, trans-N-(4-{2-[4-(2,3-Dihydro-furo[3,2-c]pyridin-4-yl)-piperazin-1-yl]-ethyl}-cyclohexyl)-2-(1-hydroxy-cyclobutyl)-acetamide] gave a Ki [1] of 22.5 nM, a Ki [2] of 25.8 nM and a Ki [3] of 409 nM. The melting point was 155 °C.
